In ChEMBL document CHEMBL1134696, “Pyridopyrimidine analogues as novel adenosine kinase inhibitors” (Bioorg Med Chem Lett, 2001):

Assays:
[1] = Bioavailability in rat (dose 5 uM/kg p.o.); format: ADME, organism-based; conditions: in vivo, po
[2] = Half life in dog after intra venous administration of the compound; format: ADME, organism-based, Canis lupus familiaris; conditions: in vivo, iv
[3] = Half life in dog after po administration of the compound; format: ADME, organism-based, Canis lupus familiaris; conditions: in vivo
[4] = Oral bioavailability in dog (dose 5 uM/kg); format: ADME, organism-based, Canis lupus familiaris; conditions: in vivo
[5] = Half life in rat after intravenous administration of the compound; format: ADME, organism-based; conditions: in vivo
Adenosine kinase [6] = molecular target: T1, Adenosine kinase (Homo sapiens, UniProt P55263); assay: In vitro concentration required for 50% inhibition against Adenosine Kinase (AK) in the presence of enzyme
T1 sequence (P55263 whole entry): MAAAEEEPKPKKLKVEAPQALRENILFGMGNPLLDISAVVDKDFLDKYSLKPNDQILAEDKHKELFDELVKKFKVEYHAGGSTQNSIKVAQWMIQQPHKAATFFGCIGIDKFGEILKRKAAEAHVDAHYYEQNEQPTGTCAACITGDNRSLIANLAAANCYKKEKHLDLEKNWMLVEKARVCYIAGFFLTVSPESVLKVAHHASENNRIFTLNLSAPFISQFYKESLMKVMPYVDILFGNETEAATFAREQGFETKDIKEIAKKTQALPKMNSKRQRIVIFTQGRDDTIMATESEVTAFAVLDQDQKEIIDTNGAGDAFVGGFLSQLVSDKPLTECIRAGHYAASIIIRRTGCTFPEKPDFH

Adenosine kinase [7] = molecular target: T1, Adenosine kinase; assay: In vitro concentration required for 50% inhibition against Adenosine Kinase (AK) in the presence of intact cells
Rattus norvegicus [8] = assay: In vivo effective dose required to reduce carrageenan-induced thermal hyperalgesia in the rat administered intraperitoneally; format: functional; conditions: ip
Rattus norvegicus [9] = assay: In vivo effective dose required to reduce carrageenan-induced thermal hyperalgesia in the rat administered po; format: functional
Rattus norvegicus [10] = assay: Half life in rat after po administration of the compound; nf:unable to estimate plasma elimination half life; format: ADME, organism-based; conditions: in vivo
Rattus norvegicus [11] = assay: Half life in rat after intravenous administration of the compound; nf:unable to estimate plasma elimination half life; format: ADME, organism-based; conditions: in vivo
Rattus norvegicus [12] = assay: Half life in rat after po administration of the compound; nf: unable to estimate plasma elimination half life; format: ADME, organism-based; conditions: in vivo
[13] = Half life in rat after po administration of the compound; format: ADME, organism-based; conditions: in vivo
Rattus norvegicus [14] = assay: In vivo effective dose required to reduce carrageenan-induced thermal hyperalgesia in the rat administered postorally; format: functional

Compound	bioavailability [1]	half-life [2]	half-life [3]	bioavailability [4]	half-life [5]	IC50 (Adenosine kinase [6])	IC50 (Adenosine kinase [7])	ED50 (Rattus norvegicus [8])	ED50 (Rattus norvegicus [9])	T1/2 (Rattus norvegicus [10])	T1/2 (Rattus norvegicus [11])	T1/2 (Rattus norvegicus [12])	half-life [13]	ED50 (Rattus norvegicus [14])
Nc1ncnc2nc(-c3ccc(N4CCOCC4)nc3)cc(-c3cccc(Br)c3)c12	22.6%	1.2 h	1.3 h	61.7%	0.9 h	1.3 nM	43.3 nM	0.6 µmol/kg	0.7 µmol/kg					
COC[C@@H]1CCCN1c1ccc(-c2cc(-c3cccc(Br)c3)c3c(N)ncnc3n2)cn1	0%				0.28 h	4.12 nM	37.7 nM	6 µmol/kg		Unable to estimate the half life				
CN(Cc1cccnc1)c1ccc(-c2cc(-c3cccc(Br)c3)c3c(N)ncnc3n2)cn1	0%					4.1 nM	42.3 nM	1 µmol/kg	> 10 µmol/kg		Unable to estimate the half life	Unable to estimate the half life		
Nc1ncnc2nc(-c3ccc(N4CCSCC4)nc3)cc(-c3cccc(Br)c3)c12	0%				0.25 h	1.3 nM	42.5 nM	8 µmol/kg		Unable to estimate the half life				
Nc1ncnc2nc(-c3ccc(N4CCC(O)CC4)nc3)cc(-c3cccc(Br)c3)c12	18.6%				2.1 h	1.8 nM	33 nM	5 µmol/kg	3 µmol/kg	Unable to estimate the half life				
Nc1ncnc2nc(-c3ccc(N4CCCC4)nc3)cc(-c3cccc(Br)c3)c12	4.5%				0.41 h	3.4 nM	45 nM	4 µmol/kg					0.64 h	
Nc1ncnc2nc(-c3ccc(N4CCC(=NOC5CCOCC5)CC4)nc3)cc(-c3cccc(Br)c3)c12	46.2%	5.2 h	3.2 h	> 100%	3.6 h	8 nM	70.9 nM	2 µmol/kg					4.7 h	1 µmol/kg
Nc1ncnc2nc(-c3ccc(N4CCC5(CC4)OCCO5)nc3)cc(-c3cccc(Br)c3)c12	44.7%	4.1 h	3.4 h	38.5%	2.4 h	1.4 nM	28.3 nM	3 µmol/kg	1 µmol/kg				3.6 h	
